# In patent publication US10681909B2, “Herbicidal triazoles” (FMC Corporation, priority 2014, dated 2020):
# How the values were obtained:
# chamomile = test: Test D postemergence; type: in vivo, Matricaria inodora; conditions: scale 0 to 100
# Summary of the method: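 Both application timings used one formulation, a non-phytotoxic solvent mixture with surfactant. Preemergence pots held silt loam, and postemergence plants grew in peat moss/vermiculite medium to the 1- to 4-leaf stage. All plants were held under controlled conditions for 14 to 21 d before visual scoring relative to controls.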
# blackgrass = test: Test C postemergence; type: in vivo, Alopecurus myosuroides
# Summary of the method: (§1)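 Preemergence: seeds sown in loam soil–sand blend and treated with test chemicals formulated in a non-phytotoxic solvent mixture containing a surfactant. Postemergence: plants grown in peat moss/vermiculite-based medium and sprayed with the same formulation at 2 to 18 cm height (1- to 4-leaf stage).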
# barnyardgrass [1] = test: Test C postemergence; type: in vivo, Echinochloa crus-galli
# Summary of the method: as §1
# morningglory = test: Test C postemergence; type: in vivo, Ipomoea coccinea
# Summary of the method: as §1
# crabgrass, large = test: Test C postemergence; type: in vivo, Digitaria sanguinalis
# Summary of the method: as §1
# waterhemp = test: Test C postemergence; type: in vivo, Amaranthus rudis
# Summary of the method: as §1
# barnyardgrass [2] = test: Test A preemergence; type: in vivo, Echinochloa crus-galli; conditions: 0 to 100 scale (0 no effect, 100 complete control)
# Summary of the method: (§2)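 Herbicidal response was scored on plants treated pre- or postemergence with surfactant-containing, non-phytotoxic solvent formulations. Preemergence meant a directed spray onto soil (loam–sand) holding sown seed; postemergence plants were at one to two leaves.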
# kochia = test: Test C postemergence; type: in vivo, Kochia scoparia
# Summary of the method: as §1
# soybean = test: Test C postemergence; type: in vivo, Glycine max
# Summary of the method: as §1
# pigweed = test: Test A preemergence; type: in vivo, Amaranthus retroflexus; conditions: 0 to 100 scale (0 no effect, 100 complete control)
# Summary of the method: as §2
# foxtail, giant = test: Test A preemergence; type: in vivo, Setaria faberii; conditions: 0 to 100 scale (0 no effect, 100 complete control)
# Summary of the method: as §2
# corn = test: Test A preemergence; type: in vivo, Zea mays; conditions: Zea mays, pre-emergence, 240 h, 0 to 100 scale (0 no effect, 100 complete control)
# Summary of the method: as §2
# wheat = test: Test A postemergence; type: in vivo, Triticum aestivum; conditions: 0 to 100 scale (0 no effect, 100 complete control), approx. 10 d
# Summary of the method: as §2
# velvetleaf = test: Test C postemergence; type: in vivo, Abutilon theophrasti
# Summary of the method: as §1
smiles,measurement,setting,value
"CCOc1nc(-c2ccc(F)cc2)nn1Cc1ccnc(C(F)(F)F)c1 [Compound 8, 4-[[5-ethoxy-3-(4-fluorophenyl)-1H-1,2,4-triazol-1-yl]methyl]-2-(trifluoromethyl)pyridine]",Plant response rating: Chamomile,chamomile; 31 g ai/ha,50
same,Plant response rating: Chamomile,chamomile; 62 g ai/ha,50
same,Plant response rating: Chamomile,chamomile; 125 g ai/ha,60
same,Plant response rating: Chamomile,chamomile; 250 g ai/ha,65
same,Plant response rating (scale of 0 to 100 where 0 is no effect and 100 is complete control),blackgrass; 31 g ai/ha,50
same,Plant response rating (scale of 0 to 100 where 0 is no effect and 100 is complete control),blackgrass; 62 g ai/ha,40
same,Plant response rating (scale of 0 to 100 where 0 is no effect and 100 is complete control),blackgrass; 125 g ai/ha,55
same,Plant response rating (scale of 0 to 100 where 0 is no effect and 100 is complete control),blackgrass; 250 g ai/ha,75
same,Plant response rating (scale of 0 to 100 where 0 is no effect and 100 is complete control),barnyardgrass [1]; 31 g ai/ha,10
same,Plant response rating (scale of 0 to 100 where 0 is no effect and 100 is complete control),barnyardgrass [1]; 62 g ai/ha,20
same,Plant response rating (scale of 0 to 100 where 0 is no effect and 100 is complete control),barnyardgrass [1]; 125 g ai/ha,40
same,Plant response rating (scale of 0 to 100 where 0 is no effect and 100 is complete control),barnyardgrass [1]; 250 g ai/ha,75
same,Plant response rating (scale of 0 to 100 where 0 is no effect and 100 is complete control),morningglory; 31 g ai/ha,85
same,Plant response rating (scale of 0 to 100 where 0 is no effect and 100 is complete control),morningglory; 62 g ai/ha,98
same,Plant response rating (scale of 0 to 100 where 0 is no effect and 100 is complete control),morningglory; 125 g ai/ha,80
same,Plant response rating (scale of 0 to 100 where 0 is no effect and 100 is complete control),morningglory; 250 g ai/ha,100
same,Plant response rating (scale of 0 to 100 where 0 is no effect and 100 is complete control),"crabgrass, large; 31 g ai/ha",20
same,Plant response rating (scale of 0 to 100 where 0 is no effect and 100 is complete control),"crabgrass, large; 62 g ai/ha",35
same,Plant response rating (scale of 0 to 100 where 0 is no effect and 100 is complete control),"crabgrass, large; 125 g ai/ha",70
same,Plant response rating (scale of 0 to 100 where 0 is no effect and 100 is complete control),"crabgrass, large; 250 g ai/ha",85
same,Plant response rating (scale of 0 to 100 where 0 is no effect and 100 is complete control),waterhemp; 31 g ai/ha,95
same,Plant response rating (scale of 0 to 100 where 0 is no effect and 100 is complete control),waterhemp; 62 g ai/ha,98
same,Plant response rating (scale of 0 to 100 where 0 is no effect and 100 is complete control),waterhemp; 125 g ai/ha,95
same,Plant response rating (scale of 0 to 100 where 0 is no effect and 100 is complete control),waterhemp; 250 g ai/ha,98
same,pest or weed control at 125 g/ha,"barnyardgrass [2]; Echinochloa crus-galli, pre-emergence, 240 h, 125 g ai/ha, read-out: Plant response rating, Barnyardgrass",100%
same,pest or weed control at 500 g/ha,"barnyardgrass [2]; Echinochloa crus-galli, pre-emergence, 240 h, 500 g ai/ha, approx. 10 d, read-out: Plant response rating, Barnyardgrass",100%
same,Plant response rating (scale of 0 to 100 where 0 is no effect and 100 is complete control),kochia; 31 g ai/ha,95
same,Plant response rating (scale of 0 to 100 where 0 is no effect and 100 is complete control),kochia; 62 g ai/ha,95
same,Plant response rating (scale of 0 to 100 where 0 is no effect and 100 is complete control),kochia; 125 g ai/ha,95
same,Plant response rating (scale of 0 to 100 where 0 is no effect and 100 is complete control),kochia; 250 g ai/ha,95
same,Plant response rating (scale of 0 to 100 where 0 is no effect and 100 is complete control),soybean; 31 g ai/ha,65
same,Plant response rating (scale of 0 to 100 where 0 is no effect and 100 is complete control),soybean; 62 g ai/ha,75
same,Plant response rating (scale of 0 to 100 where 0 is no effect and 100 is complete control),soybean; 125 g ai/ha,95
same,Plant response rating (scale of 0 to 100 where 0 is no effect and 100 is complete control),soybean; 250 g ai/ha,85
same,pest or weed control at 125 g/ha,"pigweed; Amaranthus retroflexus, pre-emergence, 240 h, 125 g ai/ha, read-out: Plant response rating, Pigweed",100%
same,pest or weed control at 500 g/ha,"pigweed; Amaranthus retroflexus, pre-emergence, 240 h, 500 g ai/ha, approx. 10 d, read-out: Plant response rating, Pigweed",100%
same,pest or weed control at 125 g/ha,"foxtail, giant; Setaria faberi, pre-emergence, 240 h, 125 g ai/ha, read-out: Plant response rating, Foxtail, Giant",100%
same,pest or weed control at 500 g/ha,"foxtail, giant; Setaria faberi, pre-emergence, 240 h, 500 g ai/ha, approx. 10 d, read-out: Plant response rating, Foxtail, Giant",100%
same,"Corn plant response rating (crop injury, 0 = no effect, 100 = complete kill) at 125 g/ha",corn; 125 g ai/ha,90%
same,"Corn plant response rating (crop injury, 0 = no effect, 100 = complete kill) at 500 g/ha","corn; 500 g ai/ha, approx. 10 d",100%
same,plant injury at 125 g/ha,"wheat; Triticum aestivum, post-emergence, 240 h, 125 g ai/ha, read-out: Plant response rating, Wheat",40%
same,plant injury at 500 g/ha,"wheat; Triticum aestivum, post-emergence, 240 h, 500 g ai/ha, read-out: Plant response rating, Wheat",100%
same,Plant response rating (scale of 0 to 100 where 0 is no effect and 100 is complete control),velvetleaf; 31 g ai/ha,50
same,Plant response rating (scale of 0 to 100 where 0 is no effect and 100 is complete control),velvetleaf; 62 g ai/ha,70
same,Plant response rating (scale of 0 to 100 where 0 is no effect and 100 is complete control),velvetleaf; 125 g ai/ha,90
same,Plant response rating (scale of 0 to 100 where 0 is no effect and 100 is complete control),velvetleaf; 250 g ai/ha,90
Fc1ccc(-c2nc(OCC(F)(F)F)n(Cc3ccnc(C(F)(F)F)c3)n2)cc1 [Compound 30],Plant response rating: Chamomile,chamomile; 16 g ai/ha,20
same,Plant response rating: Chamomile,chamomile; 31 g ai/ha,30
same,Plant response rating: Chamomile,chamomile; 62 g ai/ha,40
same,Plant response rating: Chamomile,chamomile; 125 g ai/ha,70
same,Plant response rating (scale of 0 to 100 where 0 is no effect and 100 is complete control),blackgrass; 31 g ai/ha,25
same,Plant response rating (scale of 0 to 100 where 0 is no effect and 100 is complete control),blackgrass; 62 g ai/ha,30
same,Plant response rating (scale of 0 to 100 where 0 is no effect and 100 is complete control),blackgrass; 125 g ai/ha,40
same,Plant response rating (scale of 0 to 100 where 0 is no effect and 100 is complete control),blackgrass; 250 g ai/ha,60
same,Plant response rating (scale of 0 to 100 where 0 is no effect and 100 is complete control),barnyardgrass [1]; 31 g ai/ha,25
same,Plant response rating (scale of 0 to 100 where 0 is no effect and 100 is complete control),barnyardgrass [1]; 62 g ai/ha,20
same,Plant response rating (scale of 0 to 100 where 0 is no effect and 100 is complete control),barnyardgrass [1]; 125 g ai/ha,40
same,Plant response rating (scale of 0 to 100 where 0 is no effect and 100 is complete control),barnyardgrass [1]; 250 g ai/ha,85
same,Plant response rating (scale of 0 to 100 where 0 is no effect and 100 is complete control),morningglory; 31 g ai/ha,80
same,Plant response rating (scale of 0 to 100 where 0 is no effect and 100 is complete control),morningglory; 62 g ai/ha,70
same,Plant response rating (scale of 0 to 100 where 0 is no effect and 100 is complete control),morningglory; 125 g ai/ha,80
same,Plant response rating (scale of 0 to 100 where 0 is no effect and 100 is complete control),morningglory; 250 g ai/ha,100
same,Plant response rating (scale of 0 to 100 where 0 is no effect and 100 is complete control),"crabgrass, large; 31 g ai/ha",20
same,Plant response rating (scale of 0 to 100 where 0 is no effect and 100 is complete control),"crabgrass, large; 62 g ai/ha",15
same,Plant response rating (scale of 0 to 100 where 0 is no effect and 100 is complete control),"crabgrass, large; 125 g ai/ha",35
same,Plant response rating (scale of 0 to 100 where 0 is no effect and 100 is complete control),"crabgrass, large; 250 g ai/ha",60
same,Plant response rating (scale of 0 to 100 where 0 is no effect and 100 is complete control),waterhemp; 31 g ai/ha,95
same,Plant response rating (scale of 0 to 100 where 0 is no effect and 100 is complete control),waterhemp; 62 g ai/ha,98
same,Plant response rating (scale of 0 to 100 where 0 is no effect and 100 is complete control),waterhemp; 125 g ai/ha,95
same,Plant response rating (scale of 0 to 100 where 0 is no effect and 100 is complete control),waterhemp; 250 g ai/ha,98
same,"Plant response rating, Barnyardgrass",barnyardgrass [2]; 125 g ai/ha,90
same,"Plant response rating, Barnyardgrass","barnyardgrass [2]; 500 g ai/ha, approx. 10 d",100
same,Plant response rating (scale of 0 to 100 where 0 is no effect and 100 is complete control),kochia; 31 g ai/ha,100
same,Plant response rating (scale of 0 to 100 where 0 is no effect and 100 is complete control),kochia; 62 g ai/ha,100
same,Plant response rating (scale of 0 to 100 where 0 is no effect and 100 is complete control),kochia; 125 g ai/ha,100
same,Plant response rating (scale of 0 to 100 where 0 is no effect and 100 is complete control),kochia; 250 g ai/ha,100
same,Plant response rating (scale of 0 to 100 where 0 is no effect and 100 is complete control),soybean; 31 g ai/ha,25
same,Plant response rating (scale of 0 to 100 where 0 is no effect and 100 is complete control),soybean; 62 g ai/ha,45
same,Plant response rating (scale of 0 to 100 where 0 is no effect and 100 is complete control),soybean; 125 g ai/ha,60
same,Plant response rating (scale of 0 to 100 where 0 is no effect and 100 is complete control),soybean; 250 g ai/ha,75
same,"Plant response rating, Pigweed",pigweed; 125 g ai/ha,100
same,"Plant response rating, Pigweed","pigweed; 500 g ai/ha, approx. 10 d",100
same,"Plant response rating, Foxtail, Giant","foxtail, giant; 125 g ai/ha",100
same,"Plant response rating, Foxtail, Giant","foxtail, giant; 500 g ai/ha, approx. 10 d",100
same,"Plant response rating, Wheat",wheat; 125 g ai/ha,10
same,"Plant response rating, Wheat",wheat; 500 g ai/ha,30
same,Plant response rating (scale of 0 to 100 where 0 is no effect and 100 is complete control),velvetleaf; 31 g ai/ha,55
same,Plant response rating (scale of 0 to 100 where 0 is no effect and 100 is complete control),velvetleaf; 62 g ai/ha,60
same,Plant response rating (scale of 0 to 100 where 0 is no effect and 100 is complete control),velvetleaf; 125 g ai/ha,80
same,Plant response rating (scale of 0 to 100 where 0 is no effect and 100 is complete control),velvetleaf; 250 g ai/ha,90
